The results in this text go back to ChEMBL document CHEMBL1201862, “PubChem BioAssay data set” (2004).

As usually defined, the EC50 is the concentration at which the effect is half-maximal. As usually defined, the IC50 is the concentration needed to halve the response being measured.

SMILES strings stand for the structures. The source made the active and inactive calls.

One experiment has as its target Mu-type opioid receptor (Homo sapiens, UniProt P35372). Briefly: SAR Analysis of Agonists of the MOR Receptor using an Image-Based Assay - Set 3. [Related pubchem assays (depositor defined):AID1777, AID1785, AID1786, AID1966, AID2133, AID2136, AID2284, AID2285, AID2352]. The experiment is classed as functional.
Experiment [1] deals with Delta-type opioid receptor (Homo sapiens, UniProt P41143). Briefly: SAR Analysis of Agonists of the DOR Receptor using an Image-Based Assay - Set 3. [Related pubchem assays (depositor defined):AID1777, AID1786]. The experiment is classed as functional.
Chain of Delta-type opioid receptor (P41143 whole entry): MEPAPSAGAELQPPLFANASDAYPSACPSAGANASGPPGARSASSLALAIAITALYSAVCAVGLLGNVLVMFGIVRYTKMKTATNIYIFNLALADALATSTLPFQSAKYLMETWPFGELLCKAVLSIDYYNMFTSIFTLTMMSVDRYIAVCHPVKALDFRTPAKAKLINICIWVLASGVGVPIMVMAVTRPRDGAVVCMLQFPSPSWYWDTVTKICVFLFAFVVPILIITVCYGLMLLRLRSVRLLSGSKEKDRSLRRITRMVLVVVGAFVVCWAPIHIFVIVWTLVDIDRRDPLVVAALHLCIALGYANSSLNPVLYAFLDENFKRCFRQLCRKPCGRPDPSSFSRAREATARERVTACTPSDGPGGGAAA
Experiment [2] has as its target T1, Kappa-type opioid receptor (Homo sapiens, UniProt P41145). Nature of the experiment: KOR agonist analogs, arrestin-GFP redistribution, SAR follow-up, imaging, image-based, set 3 (AID 488833). Type of experiment: functional.
For experiment [3], the target named is T1, Kappa-type opioid receptor. Nature of the experiment: SAR analysis of small molecule agonists of the kappa opioid receptor via a luminescent beta-arrestin assay - Set 3. [Related pubchem assays (depositor defined):AID1777, AID1785, AID1786, AID1966, AID2133, AID2136, AID2284, AID2500]. Type of experiment: functional.
For experiment [4], the target named is T2, Runt-related transcription factor 1/Core-binding factor subunit beta (Homo sapiens, UniProt Q01196+Q13951). Nature of the experiment: inhibitors of RUNX1 Runt–CBFb-SMMHC binding, primary screen, biochemical, FRET, Cerulean-Runt, Venus-CBFb-SMMHC, uHTS (AID 1434).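 Note: partner is the CBFb-SMMHC leukemia fusion protein rather than wild-type CBFb.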 Type of experiment: protein assay.
T2 sequence (Q01196 whole entry, the tested form may be a part): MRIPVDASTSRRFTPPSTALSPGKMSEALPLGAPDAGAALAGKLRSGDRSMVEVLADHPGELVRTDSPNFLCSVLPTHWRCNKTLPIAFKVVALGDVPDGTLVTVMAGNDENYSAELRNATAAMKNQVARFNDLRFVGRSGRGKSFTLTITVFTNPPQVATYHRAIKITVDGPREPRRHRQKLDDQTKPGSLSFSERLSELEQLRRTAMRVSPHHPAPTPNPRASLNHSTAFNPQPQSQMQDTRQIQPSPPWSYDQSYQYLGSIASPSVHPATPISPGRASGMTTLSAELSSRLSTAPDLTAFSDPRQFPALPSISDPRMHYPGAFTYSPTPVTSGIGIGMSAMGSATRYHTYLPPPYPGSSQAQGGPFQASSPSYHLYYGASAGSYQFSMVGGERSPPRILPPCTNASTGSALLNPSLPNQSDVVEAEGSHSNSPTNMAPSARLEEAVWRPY
T2 sequence (Q13951 whole entry, the tested form may be a part): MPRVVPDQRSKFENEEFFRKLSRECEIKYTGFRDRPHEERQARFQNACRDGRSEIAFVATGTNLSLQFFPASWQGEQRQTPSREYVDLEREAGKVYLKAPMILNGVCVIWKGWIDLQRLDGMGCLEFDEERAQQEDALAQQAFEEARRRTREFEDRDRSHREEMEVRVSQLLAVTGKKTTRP
The target of experiment [5] is T2, Runt-related transcription factor 1/Core-binding factor subunit beta. Briefly: inhibitors of RUNX1 Runt–CBFb-SMMHC binding, biochemical, TR-FRET (AID 1438). The experiment is classed as protein assay. In general terms: In TR-FRET formats the signal depends on donor and acceptor labels being close together.
Another experiment addresses Genome polyprotein (Hepatitis C virus, UniProt Q2Q167). Nature of the experiment: HCV core protein dimerization inhibitors, dose response, biochemical, TR-FRET (AID 2159).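 Note: blocks dimerization of HCV core protein measured by TR-FRET between tagged core106 pairs.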 Also noted: species or system Hepacivirus hominis.
Experiment [6] has as its target T3, Ubiquitin-conjugating enzyme E2 N (Homo sapiens, UniProt P61088).
T3 sequence (P61088 whole entry): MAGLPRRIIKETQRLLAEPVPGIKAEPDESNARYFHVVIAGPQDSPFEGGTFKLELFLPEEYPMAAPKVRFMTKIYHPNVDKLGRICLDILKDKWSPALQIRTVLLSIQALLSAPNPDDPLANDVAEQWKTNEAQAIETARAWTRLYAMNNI
The experiment is classed as functional.

Experiment [7] concerns the target T3, Ubiquitin-conjugating enzyme E2 N. Type of experiment: functional. The source holds these as a separate data set.
A further experiment concerns the target T4, Bcl-2-related protein A1 (Mus musculus, UniProt Q07440).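 Note: confirmatory dose–response counterscreen on Bfl-1, used to check hits from a UBC13 polyubiquitin inhibitor campaign.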
T4 sequence (Q07440 whole entry): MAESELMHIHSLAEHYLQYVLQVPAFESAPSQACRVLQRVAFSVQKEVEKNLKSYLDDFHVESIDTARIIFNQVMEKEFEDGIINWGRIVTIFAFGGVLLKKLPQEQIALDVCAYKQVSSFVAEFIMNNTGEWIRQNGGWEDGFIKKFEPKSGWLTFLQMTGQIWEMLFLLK
The experiment is classed as functional.

Experiment [8] has as its target Intestinal-type alkaline phosphatase (Mus musculus, UniProt P24822). Briefly: mouse intestinal alkaline phosphatase activators, dose response, biochemical, luminescence, uHTS hits (AID 488783). Type of experiment: functional.
The target in experiment [9] is T5, Rac GTPase-activating protein 1 (Homo sapiens, UniProt Q9H0H5).
T5 sequence (Q9H0H5 whole entry): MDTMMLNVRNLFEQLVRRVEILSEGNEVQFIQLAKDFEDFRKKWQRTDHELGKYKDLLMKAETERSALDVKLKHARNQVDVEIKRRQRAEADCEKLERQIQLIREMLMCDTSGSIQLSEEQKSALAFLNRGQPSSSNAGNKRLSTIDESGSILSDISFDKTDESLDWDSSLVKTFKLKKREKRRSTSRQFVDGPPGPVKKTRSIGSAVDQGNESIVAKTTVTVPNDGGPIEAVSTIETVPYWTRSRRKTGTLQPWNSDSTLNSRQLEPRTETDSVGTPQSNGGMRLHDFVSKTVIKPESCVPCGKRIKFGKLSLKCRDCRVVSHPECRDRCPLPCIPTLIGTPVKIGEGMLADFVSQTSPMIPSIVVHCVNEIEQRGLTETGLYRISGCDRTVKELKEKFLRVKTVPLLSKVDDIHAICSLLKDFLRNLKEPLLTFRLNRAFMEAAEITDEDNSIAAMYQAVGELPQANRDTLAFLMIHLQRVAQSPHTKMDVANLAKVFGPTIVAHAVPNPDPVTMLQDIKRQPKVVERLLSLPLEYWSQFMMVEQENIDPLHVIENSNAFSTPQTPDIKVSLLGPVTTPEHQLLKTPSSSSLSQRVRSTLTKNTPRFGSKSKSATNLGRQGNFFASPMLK
Briefly: MgcRacGAP GTPase-activating activity inhibitors, confirmation, biochemical, ADP Hunter fluorescence, primary and confirmatory (AID 624330). Type of experiment: functional.

Experiment [10] addresses Alkaline phosphatase, placental type (Homo sapiens, UniProt P05187). Briefly: PLAP enzyme inhibitors, confirmation, biochemical, luminescence (AID 1512). Type of experiment: functional.
A further experiment concerns the target T6, Aminopeptidase N (Plasmodium falciparum FcB1/Columbia, UniProt O96935).
T6 sequence (O96935 whole entry): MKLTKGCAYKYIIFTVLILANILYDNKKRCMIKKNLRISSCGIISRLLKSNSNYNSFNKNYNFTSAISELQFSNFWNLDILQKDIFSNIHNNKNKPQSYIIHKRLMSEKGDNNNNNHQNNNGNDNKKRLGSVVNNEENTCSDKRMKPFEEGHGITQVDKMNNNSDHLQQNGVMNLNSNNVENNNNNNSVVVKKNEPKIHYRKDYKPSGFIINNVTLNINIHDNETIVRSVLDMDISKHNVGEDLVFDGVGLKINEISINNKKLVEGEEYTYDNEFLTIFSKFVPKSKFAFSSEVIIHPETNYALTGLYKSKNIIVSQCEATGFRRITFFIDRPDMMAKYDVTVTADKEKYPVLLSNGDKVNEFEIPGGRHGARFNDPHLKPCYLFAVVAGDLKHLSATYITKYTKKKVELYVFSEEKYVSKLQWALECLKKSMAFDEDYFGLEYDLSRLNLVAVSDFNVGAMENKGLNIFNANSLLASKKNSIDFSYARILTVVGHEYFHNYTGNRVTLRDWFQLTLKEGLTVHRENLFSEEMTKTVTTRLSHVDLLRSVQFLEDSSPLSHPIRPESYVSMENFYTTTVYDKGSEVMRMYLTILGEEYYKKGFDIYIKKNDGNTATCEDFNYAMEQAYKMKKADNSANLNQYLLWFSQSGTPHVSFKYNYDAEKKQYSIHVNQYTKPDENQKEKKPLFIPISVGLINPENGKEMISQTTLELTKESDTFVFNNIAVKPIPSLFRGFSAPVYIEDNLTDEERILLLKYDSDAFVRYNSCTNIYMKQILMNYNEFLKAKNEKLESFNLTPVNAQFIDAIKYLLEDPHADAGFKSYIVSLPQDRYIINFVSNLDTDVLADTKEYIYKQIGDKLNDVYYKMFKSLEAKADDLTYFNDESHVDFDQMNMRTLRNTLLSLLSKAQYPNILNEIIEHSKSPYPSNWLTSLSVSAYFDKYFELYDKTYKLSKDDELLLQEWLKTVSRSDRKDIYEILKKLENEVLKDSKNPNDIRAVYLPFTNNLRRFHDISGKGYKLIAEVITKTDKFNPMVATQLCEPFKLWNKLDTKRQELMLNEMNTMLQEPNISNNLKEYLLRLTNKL
Nature of the experiment: P. falciparum M1AAP inhibitors, biochemical, fluorogenic H-Leu-NHMec substrate, 1536-well (AID 1445). On the set-up: species or system Plasmodium falciparum 3D7, 3D7.

Experiment [11] has as its target Intestinal-type alkaline phosphatase (Homo sapiens, UniProt P09923). Briefly: activation of human intestinal alkaline phosphatase – biochemical, dose response (AID 488873). The experiment is classed as functional.
Another experiment deals with T7, Bcl-2-like protein 10 (Homo sapiens, UniProt Q9HD36).
T7 sequence (Q9HD36 whole entry): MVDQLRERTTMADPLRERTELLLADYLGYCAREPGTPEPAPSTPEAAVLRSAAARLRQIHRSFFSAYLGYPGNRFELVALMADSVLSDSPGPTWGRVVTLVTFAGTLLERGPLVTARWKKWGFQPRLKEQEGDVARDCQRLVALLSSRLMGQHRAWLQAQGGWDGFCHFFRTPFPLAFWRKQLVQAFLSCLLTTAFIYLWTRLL
Briefly: displacers of TR3 peptide from Bcl-B, primary screen, selectivity assay for Bfl-1 inhibitor project, biochemical, fluorescence polarization, FITC-TR3 peptide (AID 748).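 Note: fluorescence polarization from a fluorescein-labelled TR3 peptide binding purified Bcl-B.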

The nature of experiment [12]: C. albicans growth with fluconazole, confirmation, fluorescence, retest (AID 2467). The experiment is classed as functional, cell-based.
Experiment [13] has as its target T8, Alkaline phosphatase, tissue-nonspecific isozyme (Homo sapiens, UniProt P05186).
T8 sequence (P05186 whole entry): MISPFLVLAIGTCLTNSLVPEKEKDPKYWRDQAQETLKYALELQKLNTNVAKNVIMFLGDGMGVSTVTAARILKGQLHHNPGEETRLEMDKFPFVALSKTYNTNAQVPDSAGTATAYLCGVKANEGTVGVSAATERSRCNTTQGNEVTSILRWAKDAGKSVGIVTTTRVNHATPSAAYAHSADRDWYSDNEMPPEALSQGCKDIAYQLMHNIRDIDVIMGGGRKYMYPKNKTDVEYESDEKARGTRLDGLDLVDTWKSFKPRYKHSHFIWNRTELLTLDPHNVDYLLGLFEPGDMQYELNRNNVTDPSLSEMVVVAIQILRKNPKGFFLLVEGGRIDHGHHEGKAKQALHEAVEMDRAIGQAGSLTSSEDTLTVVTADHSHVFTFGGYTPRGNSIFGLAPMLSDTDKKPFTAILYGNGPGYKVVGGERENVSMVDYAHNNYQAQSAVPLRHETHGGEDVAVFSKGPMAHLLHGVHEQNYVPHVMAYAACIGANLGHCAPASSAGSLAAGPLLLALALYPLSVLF
Briefly: TNAP enzyme activators, dose response, selectivity assay for mouse IAP activator project, biochemical, TNAP isozyme, mouse IAP uHTS hits (AID 488880). Type of experiment: functional.

Experiment [14] can be described thus: NIH-3T3 fibroblast cytotoxicity, dose response, cytotoxicity control, cell-based, fluorescence, Alamar Blue, secondary assay (AID 2327).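 Note: NIH-3T3 mouse fibroblasts cultured with fluconazole at 8 µg/mL.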 Type of experiment: functional. Background: Alamar Blue is a resazurin reagent that responds to reducing activity.
Experiment [15] deals with T8, Alkaline phosphatase, tissue-nonspecific isozyme. Nature of the experiment: human TNAP enzyme inhibitors, SAR follow-up, biochemical, luminescent, dose response (AID 1056).

T1 sequence (P41145 whole entry): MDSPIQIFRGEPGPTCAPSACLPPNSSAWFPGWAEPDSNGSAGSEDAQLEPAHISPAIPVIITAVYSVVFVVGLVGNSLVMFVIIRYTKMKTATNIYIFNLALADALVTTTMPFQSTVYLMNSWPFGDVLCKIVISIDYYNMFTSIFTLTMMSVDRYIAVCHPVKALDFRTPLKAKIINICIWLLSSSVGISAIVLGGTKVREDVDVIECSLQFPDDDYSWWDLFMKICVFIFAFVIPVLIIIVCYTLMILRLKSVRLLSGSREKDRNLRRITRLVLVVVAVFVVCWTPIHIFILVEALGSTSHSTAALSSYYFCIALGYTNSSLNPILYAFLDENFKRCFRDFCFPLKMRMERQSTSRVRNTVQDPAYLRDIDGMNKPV
Chain of Intestinal-type alkaline phosphatase (Homo sapiens, UniProt P09923) (P09923 whole entry): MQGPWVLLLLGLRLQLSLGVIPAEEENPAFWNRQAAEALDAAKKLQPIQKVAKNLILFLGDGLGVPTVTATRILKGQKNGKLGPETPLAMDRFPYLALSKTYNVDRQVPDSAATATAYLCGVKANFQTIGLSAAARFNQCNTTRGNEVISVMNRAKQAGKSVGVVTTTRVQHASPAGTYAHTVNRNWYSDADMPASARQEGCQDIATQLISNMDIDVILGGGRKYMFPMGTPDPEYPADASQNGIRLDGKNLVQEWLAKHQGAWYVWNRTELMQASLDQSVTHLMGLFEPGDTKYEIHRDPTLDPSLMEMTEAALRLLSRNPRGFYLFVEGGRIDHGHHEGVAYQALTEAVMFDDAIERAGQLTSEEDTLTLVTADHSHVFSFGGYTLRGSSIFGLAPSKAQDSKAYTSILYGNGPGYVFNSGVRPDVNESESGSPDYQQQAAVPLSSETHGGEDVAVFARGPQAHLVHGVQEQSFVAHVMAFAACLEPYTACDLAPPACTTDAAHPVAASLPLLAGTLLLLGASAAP
Chain of Alkaline phosphatase, placental type (P05187 whole entry): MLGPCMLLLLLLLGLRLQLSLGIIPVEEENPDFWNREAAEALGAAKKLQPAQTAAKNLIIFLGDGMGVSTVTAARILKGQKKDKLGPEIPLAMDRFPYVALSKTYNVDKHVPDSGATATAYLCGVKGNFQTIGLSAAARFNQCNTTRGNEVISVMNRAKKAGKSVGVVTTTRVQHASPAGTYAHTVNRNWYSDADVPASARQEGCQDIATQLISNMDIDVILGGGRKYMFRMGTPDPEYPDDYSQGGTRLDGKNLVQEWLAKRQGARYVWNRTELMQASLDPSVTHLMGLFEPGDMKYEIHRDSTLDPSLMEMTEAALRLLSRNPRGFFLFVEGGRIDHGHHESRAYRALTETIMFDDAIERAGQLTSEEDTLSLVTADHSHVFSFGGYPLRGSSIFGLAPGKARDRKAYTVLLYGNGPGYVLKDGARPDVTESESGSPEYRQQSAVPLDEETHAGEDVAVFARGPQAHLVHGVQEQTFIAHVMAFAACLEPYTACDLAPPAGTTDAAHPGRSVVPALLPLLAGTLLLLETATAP
Chain of Intestinal-type alkaline phosphatase (Mus musculus, UniProt P24822) (P24822 whole entry): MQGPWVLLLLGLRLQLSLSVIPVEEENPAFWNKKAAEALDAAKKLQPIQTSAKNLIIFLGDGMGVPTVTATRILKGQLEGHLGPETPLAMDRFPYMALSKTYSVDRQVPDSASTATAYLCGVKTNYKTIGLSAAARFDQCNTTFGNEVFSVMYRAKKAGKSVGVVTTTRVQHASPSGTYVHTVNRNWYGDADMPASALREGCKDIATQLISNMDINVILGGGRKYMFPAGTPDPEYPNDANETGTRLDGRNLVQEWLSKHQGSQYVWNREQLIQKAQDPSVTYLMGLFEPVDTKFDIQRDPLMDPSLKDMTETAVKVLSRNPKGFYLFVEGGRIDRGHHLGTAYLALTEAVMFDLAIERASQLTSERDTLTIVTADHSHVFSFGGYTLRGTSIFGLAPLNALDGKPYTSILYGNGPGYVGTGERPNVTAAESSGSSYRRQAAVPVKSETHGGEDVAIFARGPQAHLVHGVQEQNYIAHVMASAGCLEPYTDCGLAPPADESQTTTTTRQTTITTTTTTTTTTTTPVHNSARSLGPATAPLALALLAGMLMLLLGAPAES
Chain of Mu-type opioid receptor (P35372 whole entry): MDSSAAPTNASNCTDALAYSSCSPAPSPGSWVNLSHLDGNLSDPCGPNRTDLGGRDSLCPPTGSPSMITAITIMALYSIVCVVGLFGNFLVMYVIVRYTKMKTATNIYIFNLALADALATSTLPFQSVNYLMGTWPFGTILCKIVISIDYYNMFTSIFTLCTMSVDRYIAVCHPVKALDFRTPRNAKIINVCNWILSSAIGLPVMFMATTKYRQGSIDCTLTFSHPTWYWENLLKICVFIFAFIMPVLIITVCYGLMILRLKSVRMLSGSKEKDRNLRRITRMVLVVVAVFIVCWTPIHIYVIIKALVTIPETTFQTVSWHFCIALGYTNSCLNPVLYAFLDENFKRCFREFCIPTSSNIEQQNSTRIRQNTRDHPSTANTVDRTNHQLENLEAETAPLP
Chain of Genome polyprotein (Q2Q167 whole entry): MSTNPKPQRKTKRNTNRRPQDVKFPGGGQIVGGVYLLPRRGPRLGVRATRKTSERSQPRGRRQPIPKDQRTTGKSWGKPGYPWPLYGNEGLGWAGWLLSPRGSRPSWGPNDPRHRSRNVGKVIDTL

As to `O=[N+]([O-])c1ccc(CSc2nnc(-c3ccccn3)n2Cc2cccs2)cc1`, the EC50 on Mu-type opioid receptor was > 32 µM (inactive); in [1] it was > 64 µM (inactive); in [2], 0.956 µM (active); in experiment [3], 1.24 µM (active).
With `Cc1cccc(C(=O)/N=c2\c(C#N)cc3c(=O)n4cccc(C)c4nc3n2Cc2ccco2)c1`, the results for the IC50 (in [4]; in experiment [5]; against Genome polyprotein) were 0.429 µM (active), 6.54 µM (active) and > 49.8 µM (not active), respectively.
Consider `CCCCN(CC)CCNC(=O)c1cc2c(=O)n(CC)c3ccccc3c2s1`, for which the values for the IC50 (in experiment [6]; in [7]; at Bcl-2-related protein A1) were 18.1 µM (active), 5.26 µM (active) and > 20 µM (inactive), respectively.
Regarding `CCn1c(CSc2nc3ccccc3s2)nnc1SCC(=O)c1ccc(O)c(O)c1`, the EC50 in experiment [8] is 1.84 µM (active); in experiment [11], > 100 µM (inactive); in experiment [12] it was > 38 µM (not active); in [13], 64.2 µM (active); in experiment [14], > 160 µM (inactive). The IC50 in experiment [9] is 179 µM (active); in experiment [10], 3.87 µM (inactive); on Aminopeptidase N, 68.8 µM (active); on Bcl-2-like protein 10, > 100 µM (inactive); in [15], > 100 µM (inactive).
